# Results as given in patent US20240246941A1, “SUBSTITUTED 4-(3-AMINOPROP-1-YL)AMINOQUINOLINE ANALOGS AS MODULATORS OF MELANOMA-ASSOCIATED ANTIGEN 11 UBIQUITIN LIGASE” (ST. JUDE CHILDREN'S RESEARCH HOSPITAL, INC., priority 2020, published 2024).
# Target: MAGE-A11:PCF11 (Homo sapiens (Human), UniProt P43364)
# Experiment: TR-FRET single point screening at 15 μM
# Type: binding
# Design: unit not given here
# Summary of the method: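 Single-point screen at 15 μM (0.25% DMSO) measuring disruption of GST-MAGEA11 (5 nM) binding to FAM-PCF11_4 peptide (200 nM) detected by Tb-anti-GST (5 nM). Buffer 50 mM Tris pH 7.5, 20 mM MgCl2, 0.1 mg/ml BSA, 1 mM DTT; 90 min at ~25 °C; 520/490 nm ratio converted to % inhibition versus controls.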
# [1] = single point TR-FRET screening at 15 μM against MAGE-A11:PCF11
# [2] = single point TR-FRET screening of quinoline compounds against MAGE-A11:PCF11, 15 μM
# Sequence of MAGE-A11:PCF11 (P43364 218-429): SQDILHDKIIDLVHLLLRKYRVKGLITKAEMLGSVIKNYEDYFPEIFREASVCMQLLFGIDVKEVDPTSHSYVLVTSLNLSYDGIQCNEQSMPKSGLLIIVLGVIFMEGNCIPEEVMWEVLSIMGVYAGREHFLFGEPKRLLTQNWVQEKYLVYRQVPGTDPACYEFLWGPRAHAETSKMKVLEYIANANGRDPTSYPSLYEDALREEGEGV
Compound,TR-FRET signal [1],TR-FRET signal [2]
COc1ccc2nc3cc(Cl)ccc3c(NCCCNCc3ccc(Cl)cc3Cl)c2c1 [SJ000522958],−97.83,
COc1ccc2nc3cc(Cl)ccc3c(NCCCNCc3ccc(-c4cccc(Cl)c4)o3)c2c1 [SJ000522959],,−47.42
COc1ccc2nc3cc(Cl)ccc3c(NCCCNCc3c(Cl)ccc(Cl)c3Cl)c2c1 [SJ000522960],,−81.49
CCCN(CCCNc1c2ccc(Cl)cc2nc2ccc(OC)cc12)Cc1ccccc1OC(F)(F)F [SJ000522961],,22.69
CCCN(CCCNc1c2ccc(Cl)cc2nc2ccc(OC)cc12)Cc1cc2ccccc2s1 [SJ000522962],,−21.58
CCCN(CCCNc1c2ccc(Cl)cc2nc2ccc(OC)cc12)Cc1ccc(OC)c(F)c1 [SJ000522963],−177.5,
CCCN(CCCNc1c2ccc(Cl)cc2nc2ccc(OC)cc12)Cc1cn(C)c2ccccc12 [SJ000522964],−162.2,
CCCN(CCCNc1c2ccc(Cl)cc2nc2ccc(OC)cc12)Cc1cc(OC)ccc1F [SJ000522965],,−81.24
CCCN(CCCNc1c2ccc(Cl)cc2nc2ccc(OC)cc12)Cc1nc(C)cs1 [SJ000522966],,−82.15
CCCN(CCCNc1c2ccc(Cl)cc2nc2ccc(OC)cc12)Cc1cccc(OC(F)(F)F)c1 [SJ000522967],,14.48
CCCN(CCCNc1c2ccc(Cl)cc2nc2ccc(OC)cc12)Cc1c(F)cccc1C(F)(F)F [SJ000522968],,23.09
CCCN(CCCNc1c2ccc(Cl)cc2nc2ccc(OC)cc12)Cc1nc2ccccc2s1 [SJ000522969],,−68.77
CCCN(CCCNc1c2ccc(Cl)cc2nc2ccc(OC)cc12)Cc1csc2ccccc12 [SJ000522970],,−51.69
CCCCN(CCC)CCCNc1c2ccc(Cl)cc2nc2ccc(OC)cc12 [SJ000522971],−286.9,
CCCN(CCCNc1c2ccc(Cl)cc2nc2ccc(OC)cc12)Cc1ccc(CC)cc1 [SJ000522972],−105.1,
CCCN(CCCNc1c2ccc(Cl)cc2nc2ccc(OC)cc12)Cc1nccn1C [SJ000522973],−159.9,
CCCN(CCCNc1c2ccc(Cl)cc2nc2ccc(OC)cc12)Cc1ccc(Cl)c(C(F)(F)F)c1 [SJ000522974],,16.36
CCCN(CCCNc1c2ccc(Cl)cc2nc2ccc(OC)cc12)Cc1cncc(Br)c1 [SJ000522975],,−89.08
CCCN(CCCNc1c2ccc(Cl)cc2nc2ccc(OC)cc12)Cc1scnc1C [SJ000522976],−127,
CCCN(CCCNc1c2ccc(Cl)cc2nc2ccc(OC)cc12)Cc1cccnc1Br [SJ000522977],,0.2567

Compound,TR-FRET signal [1],TR-FRET signal [2]
CCCN(CCCNc1c2ccc(Cl)cc2nc2ccc(OC)cc12)Cc1c[nH]c2ccccc12 [SJ000522978],−166.2,
CCCN(CCCNc1c2ccc(Cl)cc2nc2ccc(OC)cc12)Cc1cccc2c1OCO2 [SJ000522979],−108,
CCCN(CCCNc1c2ccc(Cl)cc2nc2ccc(OC)cc12)Cc1cnn(C)c1 [SJ000522980],−276.6,
CCCN(CCCNc1c2ccc(Cl)cc2nc2ccc(OC)cc12)CCOCc1ccccc1 [SJ000522981],−212.4,
CCCN(CCCNc1c2ccc(Cl)cc2nc2ccc(OC)cc12)Cc1cc(F)cc(F)c1O [SJ000522982],,2.045
CCCN(CCCNc1c2ccc(Cl)cc2nc2ccc(OC)cc12)CCC(C)(C)C [SJ000522983],−233.7,
CCCN(CCCNc1c2ccc(Cl)cc2nc2ccc(OC)cc12)Cc1cc(OC(F)(F)F)ccc1OC [SJ000522984],,−36.71
CCCN(CCCNc1c2ccc(Cl)cc2nc2ccc(OC)cc12)Cc1cc(C(F)(F)F)ccc1OC [SJ000522985],,−46.02
CCCN(CCCNc1c2ccc(Cl)cc2nc2ccc(OC)cc12)Cc1cccc(C(F)(F)F)c1 [SJ000522986],,16.15
CCCN(CCCNc1c2ccc(Cl)cc2nc2ccc(OC)cc12)Cc1cccn1C [SJ000522987],−302.6,
CCCN(CCCNc1c2ccc(Cl)cc2nc2ccc(OC)cc12)Cc1nccs1 [SJ000522988],−117.5,
CCCN(CCCNc1c2ccc(Cl)cc2nc2ccc(OC)cc12)Cc1cc(Br)cs1 [SJ000522989],,−56.7
CCCN(CCCNc1ccnc2cc(Cl)ccc12)Cc1c[nH]c(C)n1 [SJ000522990],,4.828
CCCN(CCCNc1ccnc2cc(Cl)ccc12)Cc1cc2ccccc2o1 [SJ000522991],,9.295
CCCN(CCCNc1ccnc2cc(Cl)ccc12)Cc1c[nH]c2ccc(F)cc12 [SJ000522992],,29.34
CCCN(CCCNc1ccnc2cc(Cl)ccc12)Cc1cc2ccccc2s1 [SJ000522993],,5.864
CCCN(CCCNc1ccnc2cc(Cl)ccc12)Cc1ccc(OC)c(F)c1 [SJ000522994],,15.16
CCCN(CCCNc1ccnc2cc(Cl)ccc12)Cc1cn(C)c2ccccc12 [SJ000522995],,−1.532
CCCN(CCCNc1ccnc2cc(Cl)ccc12)Cc1cc(OC)ccc1F [SJ000522996],,26.66
CCCN(CCCNc1ccnc2cc(Cl)ccc12)Cc1nc(C)cs1 [SJ000522997],,3.413

Compound,TR-FRET signal [1],TR-FRET signal [2]
CCCN(CCCNc1ccnc2cc(Cl)ccc12)Cc1ccc(OC(F)(F)F)cc1 [SJ000522999],,22.74
C#Cc1ccccc1CN(CCC)CCCNc1ccnc2cc(Cl)ccc12 [SJ000523000],,12.45
CCCN(CCCNc1ccnc2cc(Cl)ccc12)Cc1ccc(CC)cc1 [SJ000523001],,30.13
CCCN(CCCNc1ccnc2cc(Cl)ccc12)Cc1nccn1C [SJ000523002],,6.351
CCCN(CCCNc1ccnc2cc(Cl)ccc12)Cc1cncc(Br)c1 [SJ000523004],,4.828
CCCN(CCCNc1ccnc2cc(Cl)ccc12)Cc1scnc1C [SJ000523005],,11.85
CCCN(CCCNc1ccnc2cc(Cl)ccc12)Cc1cccnc1Br [SJ000523006],,13.31
CCCN(CCCNc1ccnc2cc(Cl)ccc12)Cc1c[nH]c2ccccc12 [SJ000523007],,26.23
CCCN(CCCNc1ccnc2cc(Cl)ccc12)Cc1ncc[nH]1 [SJ000523008],,4.165
CCCN(CCCNc1ccnc2cc(Cl)ccc12)Cc1cnn(C)c1 [SJ000523009],,10.06
CCCN(CCCNc1ccnc2cc(Cl)ccc12)Cc1[nH]cnc1C [SJ000523010],,12.05
CCCN(CCCNc1ccnc2cc(Cl)ccc12)Cc1cc(OC(F)(F)F)ccc1OC [SJ000523011],,15.67
CCCN(CCCNc1ccnc2cc(Cl)ccc12)Cc1cc(C(F)(F)F)ccc1OC [SJ000523012],,30.4
CCCN(CCCNc1ccnc2cc(Cl)ccc12)Cc1cccc(C(F)(F)F)c1 [SJ000523013],,17.48
CCCN(CCCNc1ccnc2cc(Cl)ccc12)Cc1cccn1C [SJ000523014],,22.71
CCCN(CCCNc1ccnc2cc(Cl)ccc12)CC1CCOC1 (stereo not shown) [SJ000523016],,9.664
CCCN(CCCCCC(=O)OC)CCCNc1ccnc2cc(Cl)ccc12 [SJ000523017],,14.3
CCCN(CCCNc1c2ccc(Cl)cc2nc2ccc(OC)cc12)Cc1ccc(C(=O)OC)cc1 [SJ000523018],−118.6,
